Results on three substances are retold here after US20220204577A1, “Synthetic Peptides With Affinity for the Interleukin-10 Receptor, Pharmaceutical Composition and Use Thereof as Immunomodulators for Treating Autoimmune, Inflammatory or Allergic Diseases” (Universidade Federal de Uberlândia, priority 2019, published 2022).

Series [1] concerns NFκB. The series is described as follows: NFkB expression in Jurkart-Dual reporter cells, peptide pre-treatment then TNF-α. Type of series: cell-based. Conditions: peptide then TNF-α. The protocol: The assay was then performed using TNF-α as the activating molecule not only in the control, but after a pre-treatment with the synthesized peptides Pep 1, Pep 2, Pep 3, and Pep 4 at various concentrations. […] In the assays shown in FIGS. 3 A, B, and C, NFkB expression analysis was performed in Jurkart-Dual reporter cells. Cells were treated with peptides for 1 hour and TNF-α (200 ng/ml) was added. Luciferase was measured after 12 hours of treatment (FIG. 3A), 24 hours of treatment (FIG. 3B), and 48 hours of treatment (FIG. 3C).

A further series relates to IFN signaling pathway. Kind of series: IFN signaling pathway (SEAP) in Jurkart-Dual reporter cells, peptide pre-treatment then IFN-α. Type of series: cell-based. To be noted: peptide then IFN-α, 48 hours. The protocol:
Therefore, we cannot confirm whether they were able to affect the activation pathway (FIGS. 6A, B, and C) in the same or better way than the negative control (rIL-10). In the assays shown in FIGS. 5 (A, B, and C) and 6 (A, B, and C), IFN expression was analyzed in Jurkart-Dual reporter cells. In the assays shown in FIGS. 5 A, B, and C, cells were treated with peptides for 1 hour followed by the addition of IFN-α (104 EU/ml). Secreted Embryonic Alkaline Phosphatase (SEAP) production was measured after 12 hours of treatment (FIG. 5A), 24 hours of treatment (FIG. 5B), and 48 hours of treatment (FIG. 5C). In the assays shown in FIGS. 6 A, B, and C, cells were treated with IFN-α (104 EU/ml) for 1 hour, and then peptides were added. SEAP production was measured after (D) 12 hours of treatment (E) 24 hours of treatment, and (F) 48 hours of treatment. IFN-α (104 EU/mL) was used as a positive control and rIL-10 (0.4 ng/mL) as a negative control. * P<0.05.

In series [2] the test system is TLR4 signaling pathway. Kind of series: TLR4 signaling pathway (SEAP) in HEK cells, LPS pre-treatment then peptides. Type of series: cell-based. To be noted: 12 hours. The protocol: (§1) HEK cells were used to investigate the ability of the peptides to reduce activation of the TLR4 signaling pathway after 12 hours of treatment.
(§2) In the assay shown in FIG. 7A, the cells were treated with peptides for 1 hour, then LPS (100 ng/ml) was added. SEAP production was measured after 12 hours of treatment. In the assay shown in FIG. 7B, the cells were treated with LPS (100 ng/ml) for 1 hour, then the peptides were added. SEAP production was measured after 12 hours of treatment. LPS (100 ng/mL) was used as positive control and IL-10 (0.4 ng/mL) as negative control. * P<0.05; ** P<0.005; *** P<0.0005.

Series [3] can be described thus: Dynamic Light Scattering (DLS), aggregation behavior in solution. It counts as physicochemical. The protocol:
The aggregation behavior of peptides Pep 1, Pep 2, Pep 3, and Pep 4 in solution was determined by Dynamic Light Scattering (DLS), as shown in FIG. 1E. All synthetic peptides were approximately 100% monomeric in solution. The measured hydrodynamic radius of the peptides was similar for Pep 1 (0.82 nm), Pep 2 ([…]), Pep 3 (0.79 nm), and Pep 4 (0.86 nm).

For series [4], the system named is NFκB. Kind of series: NFkB expression in Jurkart-Dual reporter cells, TNF-α pre-treatment then peptides. It counts as cell-based. The protocol: Then another assay was performed in which the cells were pretreated with TNF-α and the peptides were added later. […] In the assays shown in FIGS. 4 A, B, and C the analysis of NFkB expression was performed in Jurkart-Dual reporter cells. Cells were treated with TNF-α (200 ng/ml) for 1 hour and the peptides were added. Luciferase was measured after 12 hours of treatment (FIG. 4A), 24 hours of treatment (FIG. 4B), and 48 hours of treatment (FIG. 4C). TNF-α (200 ng/mL) was used as a positive control and rIL-10 (Recombinant Interleukin-10) (0.4 ng/mL) as a negative control. * P<0.05; ** P<0.005; *** P<0.0005.

In series [5] the test system is TLR4 signaling pathway. Kind of series: TLR4 signaling pathway (SEAP) in HEK cells, peptide pre-treatment then LPS. Type of series: cell-based. To be noted: 12 hours. The protocol:
as §1, §2

Series [6] concerns NFκB, IFN, or TLR4 signaling pathways. Kind of series: Reporter cell lines treated with peptides alone (no activating molecule). Type of series: cell-based. To be noted: various concentrations, 12, 24 and 48 hours. The protocol: To investigate the ability of the peptides to interfere with the NFkB, IFN, and TLR4 pathways, reporter cell lines were used. To analyze whether the isolated peptides (without activation molecules) could induce any type of activation, the isolated peptides were tested in the cell lines during 12, 24, and 48 hours of treatment. […] As an example, FIGS. 2A, 2B, and 2C show an analysis of NFkB expression after stimulation with the synthesized peptides described in this report. The cells were treated with the synthesized peptides Pep 1, Pep 2, Pep 3, and Pep 4 at various concentrations for 12, 24, and 48 hours, without activating molecules. Luciferase was then measured after 12 hours of treatment (FIG. 2A), 24 hours of treatment (FIG. 2B), and 48 hours of treatment (FIG. 2C). […] TNF-α (200 ng/mL) was used as a positive control.

For series [7], the system named is Dendritic cells from mice bone marrow. Kind of series: Co-stimulatory molecules on bone marrow dendritic cells. To be noted: CD11c+ dendritic cells; 1 μM; 24 hours. Type of series: cell-based. The protocol:
Dendritic cells from mice bone marrow were isolated to analyze the effect of synthesized peptides Pep 1, Pep 2, Pep 3, and Pep 4 at two concentrations, 1 μM, and 10 μM, on reducing cell activation. […] In the assays, CD11c+CD86 cells (FIG. 8A) and CD11c+CD40+ cells (FIG. 8B) were used after 24 hours of treatment. LPS (100 ng/mL) was used as a positive control. * P<0.05; ** P<0.005.

The mark [8] stands for this setting: LPS 100 ng/ml 1 hour, then peptide, 100 μM.
[9] abbreviates: peptide 1 hour, then LPS 100 ng/ml, 100 μM.

For “Pep 3: synthetic peptide with affinity to the Interleukin-10 receptor, SEQ ID No 03, linear chain (HCFDTQRMEFRMPPGGGS; INTERLEUKIN-10 MIMETIC PEPTIDE)”, the NFκB activation result in the series on NFκB [1] (0.01 μM, 48 hours) was “reducing pathway activation”; in the series with NFκB [1] (0.05 μM, 12 hours), “reducing pathway activation”. Besides, the “activation of the IFN signaling pathway” value in the series with IFN signaling pathway (100 μM) is “activation of the pathway was reduced”. Further, the “activation of the TLR4 pathway” value was “activation of the TLR4 pathway was more significantly reduced” in the series on TLR4 signaling pathway [2] (setting [8]); “activation of the TLR4 pathway was more significantly reduced” in the series with TLR4 signaling pathway [2] (LPS then peptide, 0.1 μM); “activation of the TLR4 pathway was more significantly reduced” with TLR4 signaling pathway [2] (LPS then peptide, 0.5 μM); “activation of the TLR4 pathway was more significantly reduced” in the series on TLR4 signaling pathway [2] (LPS then peptide, 10 μM). The same substance came in with a hydrodynamic radius in series [3] of 0.79 nm. For the same substance, the NFκB signaling result is on record as “less activation of the analyzed signaling pathway” with NFκB [4] (TNF-α then peptide, 0.001 μM, 24 hours); “able to decrease NFκB signaling” in the series with NFκB [4] (TNF-α then peptide, 0.005 μM, 12 hours); “less activation of the analyzed signaling pathway” with NFκB [4] (TNF-α then peptide, 0.005 μM, 24 hours); “less activation of the analyzed signaling pathway” in the series with NFκB [4] (TNF-α then peptide, 10 μM, 24 hours). Further, the TLR4 pathway activation entry in the series on TLR4 signaling pathway [5] (setting [9]) is listed as “significantly reduced pathway activation”. Further, in series [6], the “NFkB expression (luciferase)” value was “unable to elicit any response”.

For the substance “Pep 4: synthetic peptide with affinity to the Interleukin-10 receptor, SEQ ID No 04, linear chain (HCMTGSRATFPSAPGGGS; INTERLEUKIN-10 MIMETIC PEPTIDE)”, the NFκB activation entry in the series with NFκB [1] (0.005 μM, 48 hours) was “reduced pathway activation”; with NFκB [1] (0.01 μM, 48 hours), “reduced pathway activation”; in the series with NFκB [1] (0.05 μM, 48 hours), “reduced pathway activation”. Besides, the “activation of the IFN signaling pathway” value in the series on IFN signaling pathway (0.05 μM) and in the series on IFN signaling pathway (100 μM) was “activation of the pathway was reduced” throughout. For the same substance, the “activation of the TLR4 pathway” value is on record as “activation of the TLR4 pathway was more significantly reduced” in the series with TLR4 signaling pathway [2] (setting [8]); “activation of the TLR4 pathway was more significantly reduced” with TLR4 signaling pathway [2] (LPS then peptide, 0.5 μM); “activation of the TLR4 pathway was more significantly reduced” in the series on TLR4 signaling pathway [2] (LPS then peptide, 1 μM); “activation of the TLR4 pathway was more significantly reduced” in the series with TLR4 signaling pathway [2] (LPS then peptide, 5 μM); “activation of the TLR4 pathway was more significantly reduced” in the series on TLR4 signaling pathway [2] (LPS then peptide, 10 μM). Further, the hydrodynamic radius in series [3] is recorded as 0.86 nm. For the same substance, the NFκB signaling result in the series on NFκB [4] (TNF-α then peptide, 0.5 μM, 12 hours) is reported as “able to decrease NFκB signaling”. The TLR4 pathway activation entry with TLR4 signaling pathway [5] (setting [9]) is listed as “significantly reduced pathway activation”; in the series with TLR4 signaling pathway [5] (peptide then LPS, 1 μM), “significantly reduced pathway activation”; in the series on TLR4 signaling pathway [5] (peptide then LPS, 5 μM), “significantly reduced pathway activation”; in the series on TLR4 signaling pathway [5] (peptide then LPS, 10 μM), “significantly reduced pathway activation”. Also, the “NFkB expression (luciferase)” value in series [6] is “unable to elicit any response”.

As for “Pep 2: synthetic peptide with affinity to the Interleukin-10 receptor, SEQ ID No 02, without disulfide bridges (HASSAVIKSSSGGGS; INTERLEUKIN-10 MIMETIC PEPTIDE)”, the “expression of CD40+” value in series [7] was “decreased the expression of CD86+ and CD40+”. In series [7], the “expression of CD86+” value was “decreased the expression of CD86+ and CD40+”. Further, the NFκB activation result in the series on NFκB [1] (0.1 μM, 12, 24 and 48 hours) is “decreased NFκB activation”; in the series on NFκB [1] (0.5 μM, 12, 24 and 48 hours), “decreased NFκB activation”; in the series with NFκB [1] (1 μM, 12, 24 and 48 hours), “decreased NFκB activation”; with NFκB [1] (5 μM, 12, 24 and 48 hours), “decreased NFκB activation”; in the series on NFκB [1] (10 μM, 12, 24 and 48 hours) it was “decreased NFκB activation”; with NFκB [1] (100 μM, 12, 24 and 48 hours), “decreased NFκB activation”. In addition, the “activation of the TLR4 pathway” value in the series with TLR4 signaling pathway [2] (setting [8]) is “activation of the TLR4 pathway was more significantly reduced”; with TLR4 signaling pathway [2] (LPS then peptide, 0.01 μM), “activation of the TLR4 pathway was more significantly reduced”; with TLR4 signaling pathway [2] (LPS then peptide, 0.05 μM), “activation of the TLR4 pathway was more significantly reduced”; in the series with TLR4 signaling pathway [2] (LPS then peptide, 0.1 μM), “activation of the TLR4 pathway was more significantly reduced”; in the series on TLR4 signaling pathway [2] (LPS then peptide, 0.5 μM), “activation of the TLR4 pathway was more significantly reduced”; with TLR4 signaling pathway [2] (LPS then peptide, 1 μM), “activation of the TLR4 pathway was more significantly reduced”. Also, the NFκB signaling result is recorded as “able to decrease NFκB signaling” in the series on NFκB [4] (TNF-α 200 ng/ml 1 hour, then peptide, 100 μM, 12 hours); “less activation of the analyzed signaling pathway” with NFκB [4] (TNF-α then peptide, 0.5 μM, 24 hours); “able to decrease NFκB signaling” in the series on NFκB [4] (TNF-α then peptide, 1 μM, 12 hours); “less activation of the analyzed signaling pathway” in the series on NFκB [4] (TNF-α then peptide, 1 μM, 24 hours); “able to decrease NFκB signaling” with NFκB [4] (TNF-α then peptide, 5 μM, 12 hours); “less activation of the analyzed signaling pathway” with NFκB [4] (TNF-α then peptide, 5 μM, 24 hours). Besides, the NFκB signaling result is “able to decrease NFκB signaling” with NFκB [4] (TNF-α then peptide, 10 μM, 12 hours) and “less activation of the analyzed signaling pathway” with NFκB [4] (TNF-α then peptide, 100 μM, 24 hours). Moreover, the TLR4 pathway activation result is given as “significantly reduced pathway activation” in the series with TLR4 signaling pathway [5] (setting [9]) and “significantly reduced pathway activation” with TLR4 signaling pathway [5] (peptide then LPS, 0.1 μM). The “NFkB expression (luciferase)” value in series [6] is listed as “unable to elicit any response”.
